Where a name gives a salt, the structure may show the parent alone.
target: Aurora A (Homo sapiens (Human), UniProt O14965); assay: Aurora A inhibition assay (Z-Lyte); format: biochemical
Sequence (O14965 whole entry): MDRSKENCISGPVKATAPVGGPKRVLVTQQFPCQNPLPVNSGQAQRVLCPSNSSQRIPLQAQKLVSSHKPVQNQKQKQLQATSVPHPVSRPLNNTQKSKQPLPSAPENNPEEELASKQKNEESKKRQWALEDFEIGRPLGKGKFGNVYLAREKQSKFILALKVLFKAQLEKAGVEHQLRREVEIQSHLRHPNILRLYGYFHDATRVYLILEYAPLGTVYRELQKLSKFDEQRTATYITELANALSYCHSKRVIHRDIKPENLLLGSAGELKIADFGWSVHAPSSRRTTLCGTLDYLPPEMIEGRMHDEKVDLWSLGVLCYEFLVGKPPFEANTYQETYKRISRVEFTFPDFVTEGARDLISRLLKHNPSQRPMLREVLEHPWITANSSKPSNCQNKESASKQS

SMILES	inhibition at 1 µM [%]
COc1ccc2c(c1)[C@]1(C[C@H]1c1ccc3c(-c4ccc(N5CCC(N6CCOCC6)CC5)cc4)n[nH]c3c1)C(=O)N2 [Example A121, (1R,2S)-5′-methoxy-2-(3-(4-(4-morpholinopiperidin-1-yl)phenyl)-1H-indazol-6-yl)spiro[cyclopropane-1,3′-indolin]-2′-one 2,2,2-trifluoroacetate]	< 50
COc1ccc2c(c1)[C@]1(C[C@H]1c1ccc3c(-c4ccc(C5CCN(C)CC5)cc4)n[nH]c3c1)C(=O)N2 [Example A123, (1R,2S)-5′-methoxy-2-(3-(4-(1-methylpiperidin-4-yl)phenyl)-1H-indazol-6-yl)spiro[cyclopropane-1,3′-indolin]-2′-one hydrochloride]	< 50
COc1ccc2c(c1)[C@]1(C[C@H]1c1ccc3c(-c4ccc(N5C[C@@H](C)N[C@@H](C)C5)cc4)n[nH]c3c1)C(=O)N2 [Example A126, (1R,2S)-2-(3-(4-(cis-3,5-dimethylpiperazin-1-yl)phenyl)-1H-indazol-6-yl)-5′-methoxyspiro[cyclopropane-1,3′-indolin]-2′-one 2,2,2-trifluoroacetate]	< 50
COc1ccc2c(c1)[C@]1(C[C@H]1c1ccc3c(-c4ccc(N(C)CCN(C)C)cc4)n[nH]c3c1)C(=O)N2 [Example A129, (1R,2S)-2-(3-(4-((2-(dimethylamino)ethyl)(methyl)amino)phenyl)-1H-indazol-6-yl)-5′-methoxyspiro[cyclopropane-1,3′-indolin]-2′-one 2,2,2-trifluoroacetate]	< 50
CCN1CCN(c2ccc(/C=C/c3n[nH]c4cc([C@@H]5C[C@@]56C(=O)Nc5ccc(OC)cc56)ccc34)cc2)CC1 [Example A187, (1R,2S)-(E)-2-(3-(4-(4-ethylpiperazin-1-yl)styryl)-1H-indazol-6-yl)-5′-methoxyspiro[cyclopropane-1,3′-indolin]-2′-one 2,2,2-trifluoroacetate]	> 50
COc1ccc2c(c1)[C@]1(C[C@H]1c1ccc3c(-c4ccc(N5CCN(CCO)CC5)cc4)n[nH]c3c1)C(=O)N2 [Example A191, (1R,2S)-2-(3-(4-(4-(2-hydroxyethyl)piperazin-1-yl)phenyl)-1H-indazol-6-yl)-5′-methoxyspiro[cyclopropane-1,3′-indolin]-2′-one 2,2,2-trifluoroacetate]	< 50
COc1ccc2c(c1)[C@]1(C[C@H]1c1ccc3c(-c4ccc(N5CCN(C6CCCC6)CC5)cc4)n[nH]c3c1)C(=O)N2 [Example A192, (1R,2S)-2-(3-(4-(4-cyclopentylpiperazin-1-yl)phenyl)-1H-indazol-6-yl)-5′-methoxyspiro[cyclopropane-1,3′-indolin]-2′-one 2,2,2-trifluoroacetate]	< 50
COc1ccc2c(c1)[C@]1(C[C@H]1c1ccc3c(-c4ccc(N5CCN(C6CCCCC6)CC5)cc4)n[nH]c3c1)C(=O)N2 [Example A193, (1R,2S)-2-(3-(4-(4-cyclohexylpiperazin-1-yl)phenyl)-1H-indazol-6-yl)-5′-methoxyspiro[cyclopropane-1,3′-indolin]-2′-one 2,2,2-trifluoroacetate]	< 50
Cc1ccc2c(c1)[C@]1(C[C@H]1c1ccc3c(/C=C/c4ccc(CN5CCOCC5)cc4)n[nH]c3c1)C(=O)N2 [Example A195, (1R,2S)-(E)-5′-methyl-2-(3-(4-(morpholinomethyl)styryl)-1H-indazol-6-yl)spiro[cyclopropane-1,3′-indolin]-2′-one 2,2,2-trifluoroacetate]	> 50

Results, then the compound that gave them:

inhibition at 1 µM [%]	SMILES
< 50	COc1ccc2c(c1)[C@]1(C[C@H]1c1ccc3c(-c4ccc(N5CCC(N(C)C)CC5)cc4)n[nH]c3c1)C(=O)N2 [Example A120, (1R,2S)-2-(3-(4-(4-(dimethylamino)piperidin-1-yl)phenyl)-1H-indazol-6-yl)-5′-methoxyspiro[cyclopropane-1,3′-indolin]-2′-one 2,2,2-trifluoroacetate]
> 50	COc1ccc2c(c1)[C@]1(C[C@H]1c1ccc3c(-c4ccc(N5CC[C@@H](N(C)C)C5)cc4)n[nH]c3c1)C(=O)N2 [Example A127, (1R,2S)-2-(3-(4-((R)-3-(dimethylamino)pyrrolidin-1-yl)phenyl)-1H-indazol-6-yl)-5′-methoxyspiro[cyclopropane-1,3′-indolin]-2′-one 2,2,2-trifluoroacetate]
> 50	COCCN1C(=O)[C@@]2(C[C@H]2c2ccc3c(/C=C/c4ccc(CN(C)C)cc4)n[nH]c3c2)c2ccccc21 [Example A131, (1R,2S)-(E)-2-(3-(4-((dimethylamino)methyl)styryl)-1H-indazol-6-yl)-1′-(2-methoxyethyl)spiro[cyclopropane-1,3′-indolin]-2′-one 2,2,2-trifluoroacetate]
< 50	CCN(CC)Cc1c(F)cc(/C=C/c2n[nH]c3cc([C@@H]4C[C@@]45C(=O)Nc4ccc(OC)cc45)ccc23)cc1F [Example A146, (1R,2S)-(E)-2-(3-(4-((diethylamino)methyl)-3,5-difluorostyryl)-1H-indazol-6-yl)-5′-methoxyspiro[cyclopropane-1,3′-indolin]-2′-one 2,2,2-trifluoroacetate]
> 50	Cc1ccc(/C=C/c2n[nH]c3cc([C@@H]4C[C@@]45C(=O)Nc4ccccc45)ccc23)cn1 [Example A150, (1R,2S)-2-(3-((E)-2-(6-methylpyridin-3-yl)vinyl)-1H-indazol-6-yl)spiro[cyclopropane-1,3′-indolin]-2′-one]
< 50	COc1ccc2c(c1)[C@]1(C[C@H]1c1ccc3c(/C=C/c4ccc(N5CCN(C)CC5)cc4)n[nH]c3c1)C(=O)N2 [Example A175, (1R,2S)-(E)-5′-methoxy-2-(3-(4-(4-methylpiperazin-1-yl)styryl)-1H-indazol-6-yl)spiro[cyclopropane-1,3′-indolin]-2′-one 2,2,2-trifluoroacetate]
> 50	COc1ccc2c(c1)[C@]1(C[C@H]1c1ccc3c(/C=C/c4csc(CN5CCOCC5)c4)n[nH]c3c1)C(=O)N2 [Example A183, (1R,2S)-5′-methoxy-2-(3-((E)-2-(5-(morpholinomethyl)thiophen-3-yl)vinyl)-1H-indazol-6-yl)spiro[cyclopropane-1,3′-indolin]-2′-one 2,2,2-trifluoroacetate]
> 50	COc1ccc2c(c1)[C@]1(C[C@H]1c1ccc3c(/C=C/c4ccc(OCCN5CCOCC5)cc4)n[nH]c3c1)C(=O)N2 [Example A194, (1R,2S)-(E)-5′-methoxy-2-(3-(4-(2-morpholinoethoxy)styryl)-1H-indazol-6-yl)spiro[cyclopropane-1,3′-indolin]-2′-one 2,2,2-trifluoroacetate]
> 50	COc1ccc2c(c1)[C@]1(C[C@H]1c1ccc3c(/C=C/c4cccnc4)n[nH]c3c1)C(=O)N2 [Example A197, (1R,2S)-5′-methoxy-2-(3-((E)-2-(pyridin-3-yl)vinyl)-1H-indazol-6-yl)spiro[cyclopropane-1,3′-indolin]-2′-one]
> 50	COc1ccc2c(c1)[C@]1(C[C@H]1c1ccc3c(/C=C/c4ccc(CN5CCOCC5)c(F)c4)n[nH]c3c1)C(=O)N2 [Example A199, (1R,2S)-(E)-2-(3-(3-fluoro-4-(morpholinomethyl)styryl)-1H-indazol-6-yl)-S-methoxyspiro[cyclopropane-1,3′-indolin]-2′-one 2,2,2-trifluoroacetate]

From patent publication US10358436B2, “Kinase inhibitors and method of treating cancer” (University Health Network, priority 2010, dated 2019)
